Measurements as given in publication PMC10711165, “DNA conformational dynamics in the context-dependent non-CG CHH methylation by plant methyltransferase DRM2” (The Journal of Biological Chemistry, 2023).

Molecular target: T1, DRM2 MTase domain (DOMAINS REARRANGED METHYLTRANSFERASE 2) (Arabidopsis thaliana, UniProt Q9M548)
T1 construct: MTase domain, residues 270-626, His6-SUMO tag cleaved by ULP1, expressed in E. coli BL21 DE3 (RIL); residues 275-626 traced in crystal
T1 sequence (Q9M548 270-626): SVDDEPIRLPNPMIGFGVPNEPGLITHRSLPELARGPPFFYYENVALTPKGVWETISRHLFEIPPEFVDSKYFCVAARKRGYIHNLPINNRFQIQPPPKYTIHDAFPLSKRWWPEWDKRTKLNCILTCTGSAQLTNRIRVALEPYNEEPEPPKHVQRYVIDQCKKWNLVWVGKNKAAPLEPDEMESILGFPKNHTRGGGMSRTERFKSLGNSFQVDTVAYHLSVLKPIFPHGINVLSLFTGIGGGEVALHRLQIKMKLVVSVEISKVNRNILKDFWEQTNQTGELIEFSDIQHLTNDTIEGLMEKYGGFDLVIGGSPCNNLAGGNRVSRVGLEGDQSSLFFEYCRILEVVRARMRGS
Assay: X-ray crystallography, […] A
Format: binding
Settings: covalent complex of protein C587 with 18-mer 5-fluorocytosine CTA DNA duplex; SAH at the cofactor site; crystals at 4 °C, 1 mM SAH

Nc1ncnc2c1ncn2[C@@H]1O[C@H](CSCC[C@H](N)C(=O)O)[C@@H](O)[C@H]1O [S-adenosyl-homocysteine]
X-ray crystallography, 2.91 A: The crystal structure of the DRM2-CTA complex bound to cofactor by-product S-adenosyl-homocysteine (SAH)
